Test results reported in patent US20240041042A1, “1-(PYRIDYL)-5-AZINYLPYRAZOLE DERIVATIVES, AND THEIR USE FOR CONTROL OF UNDESIRED PLANT GROWTH” (Bayer Aktiengesellschaft, priority 2020, published 2024).
Where two headings read alike, the source gives them in different places.

Tests used:
Type in all cases: in vivo
[1] = system: Pharbitis purpurea (PHBPU); test: Pre-emergence herbicidal action against PHBPU; conditions: dosage 320 g/ha
Outline: (§1)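 Pre-emergence soil-surface spray, WP/EC formulation, 0.5% additive, 600 l/ha water, rates of 320 g/ha or lower. Greenhouse, ~3 wk. Visual score, % of untreated control (100% = plants dead, 0% = like control).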

Lolium rigidum (LOLRI) [2] = test: Post-emergence herbicidal action against LOLRI; conditions: dosage 320 g/ha
Outline: (§2)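 Doses of 320 g/ha or lower, suffixes a, b and c marking different dosages, were applied post-emergence at the one-leaf stage in 600 l/ha water with 0.5% additive. Damage was assessed visually after about 3 weeks in the greenhouse.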

[3] = system: Verconica persica (VERPE); test: Pre-emergence herbicidal action against VERPE; conditions: dosage 320 g/ha
Outline: as §1

Oryza sativa (ORYSA) [4] = conditions: crop plant compatibility, effect in comparison to untreated controls
Outline: (§3)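 Visual rating (% effect vs. untreated plants; 100% = plant death) made about 3 weeks after treatment. Plants had been sprayed at one-leaf stage, 2–3 weeks post-sowing, with aqueous WP/EC preparations containing 0.5% additive, 600 l/ha water volume; a, b, c mark dose levels.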

[5] = system: Triticum aestivum (TRZAS); conditions: crop plant compatibility, 80 g/ha, effect vs untreated controls
Outline: as §3

Oryza sativa (ORYSA) [6] = conditions: pre-emergence, 80 g/ha, crop plant compatibility, in comparison to untreated controls
Outline: (§4)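 Crop injury rated visually in percent against untreated plants roughly 3 weeks after treatment (0% no effect, 100% plants dead). Compounds, as WP or EC with 0.5% additive in 600 l/ha water, were applied to the covering soil right after sowing; greenhouse growth. Suffixes a, b, c denote different dosages.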

[7] = system: Triticum aestivum (TRZAS); conditions: pre-emergence, 80 g/ha, crop plant compatibility, in comparison to untreated controls
Outline: as §4

Setaria viridis (SETVI) [8] = test: Pre-emergence herbicidal action against SETVI; conditions: dosage 320 g/ha
Outline: as §1

[9] = system: Polygonum convolvulus (POLCO); test: Pre-emergence herbicidal action against POLCO
Outline: as §1

Lolium rigidum (LOLRI) [10] = test: Pre-emergence herbicidal action against LOLRI; conditions: dosage 320 g/ha
Outline: as §1

[11] = system: Amaranthus retroflexus (AMARE); test: Pre-emergence herbicidal action against AMARE; conditions: visual scoring after about 3 weeks vs untreated controls
Outline: as §1

[12] = system: Amaranthus retroflexus (AMARE); test: Post-emergence herbicidal action against AMARE
Outline: as §2

[13] = system: Verconica persica (VERPE); test: Post-emergence herbicidal action against VERPE
Outline: as §2

[14] = system: Echinochloa crus-galli (ECHCG); test: Pre-emergence herbicidal action against ECHCG; conditions: dosage 320 g/ha
Outline: as §1

[15] = system: Matricaria inodora (MATIN); test: Pre-emergence herbicidal action against MATIN; conditions: dosage 320 g/ha
Outline: as §1

[16] = system: Pharbitis purpurea (PHBPU); test: Post-emergence herbicidal action against PHBPU
Outline: as §2

Avena fatua (AVEFA) = test: Post-emergence herbicidal action against AVEFA; conditions: 320 g/ha, visual rating about 3 weeks after treatment
Outline: as §2

[17] = system: Echinochloa crus-galli (ECHCG); test: Post-emergence herbicidal action against ECHCG; conditions: dosage 320 g/ha
Outline: as §2

Setaria viridis (SETVI) [18] = test: Post-emergence herbicidal action against SETVI; conditions: dosage 320 g/ha
Outline: as §2

Zea mays (ZEAMX) [19] = conditions: crop plant compatibility, 80 g/ha, effect vs untreated controls
Outline: as §3

Zea mays (ZEAMX) [20] = conditions: pre-emergence, 80 g/ha, crop plant compatibility, in comparison to untreated controls
Outline: as §4

[21] = system: Abutilon theophrasti (ABUTH); test: Post-emergence herbicidal action against ABUTH; conditions: visual rating about 3 weeks after treatment vs untreated controls (100% = plants have died, 0% = like control plants)
Outline: as §2

[22] = system: Digitaria sanguinalis (DIGSA); test: Post-emergence herbicidal action against DIGSA; conditions: 320 g/ha, visual rating about 3 weeks after treatment
Outline: as §2

[23] = system: Polygonum convolvulus (POLCO); test: Post-emergence herbicidal action against POLCO; conditions: dosage 320 g/ha
Outline: as §2

Viola tricolor (VIOTR) [24] = test: Post-emergence herbicidal action against VIOTR; conditions: 320 g/ha
Outline: as §2

Viola tricolor (VIOTR) [25] = test: Pre-emergence herbicidal action against VIOTR; conditions: 320 g/ha, Viola tricolor
Outline: as §1

[26] = system: Alopecurus myosuroides (ALOMY); test: Pre-emergence herbicidal action against ALOMY; conditions: 320 g/ha; scored visually after about 3 weeks; 100% = plants have died
Outline: as §1

[27] = 320 g/ha, visual rating about 3 weeks after treatment

## CCOC(=O)COc1nn(-c2cccc(C)n2)c(-c2ccc(F)nc2)c1Cl [Example I-352]
[1]
  Pre-emergence action against PHBPU in %: 80%
Lolium rigidum (LOLRI) [2]
  Post-emergence action against LOLRI in %: 80%
[3]
  Pre-emergence action against VERPE in %: 80%
Oryza sativa (ORYSA) [4]; 80 g/ha
  Post-emergence action against ORYSA in %: 20%
[5]
  Post-emergence action against TRZAS in %: 10%
Oryza sativa (ORYSA) [6]
  Pre-emergence action against ORYSA in %: 20%
[7]
  Pre-emergence action against TRZAS in %: 10%
Setaria viridis (SETVI) [8]
  Pre-emergence action against SETVI in %: 90%
[9]; dosage 80 g/ha
  Pre-emergence action against POLCO in %: 80%
[9]; dosage 320 g/ha
  Pre-emergence action against POLCO in %: 90%
Lolium rigidum (LOLRI) [10]
  Pre-emergence action against LOLRI in %: 80%
[11]; 320 g/ha
  Pre-emergence action against AMARE in %: 90%
[12]; [27]
  Post-emergence action against AMARE in %: 80%
[13]; 320 g/ha, VERPE
  Post-emergence action against VERPE in %: 80%
[13]; dosage 80 g/ha
  Post-emergence action against VERPE in %: 80%
[14]
  Pre-emergence action against ECHCG in %: 90%
[15]
  Pre-emergence action against MATIN in %: 90%
[16]; dosage 80 g/ha
  Post-emergence action against PHBPU in %: 90%
[16]; dosage 320 g/ha
  Post-emergence action against PHBPU in %: 90%
Avena fatua (AVEFA)
  Post-emergence action against AVEFA in %: 80%
[17]
  Post-emergence action against ECHCG in %: 80%
Setaria viridis (SETVI) [18]
  Post-emergence action against SETVI in %: 80%

## COC(=O)[C@@H](C)Oc1nn(-c2ncccc2F)c(-c2cccnc2)c1C#N [Example I-04]
[3]
  Pre-emergence action against VERPE in %: 100%
Oryza sativa (ORYSA) [4]; 80 g/ha
  Post-emergence action against ORYSA in %: 0%
Oryza sativa (ORYSA) [4]; 320 g/ha
  Post-emergence action against ORYSA in %: 0%
Zea mays (ZEAMX) [19]
  Post-emergence action against ZEAMX in %: 0%
[5]
  Post-emergence action against TRZAS in %: 20%
Zea mays (ZEAMX) [20]
  Pre-emergence action against ZEAMX in %: 0%
[7]
  Pre-emergence action against TRZAS in %: 0%
Setaria viridis (SETVI) [8]
  Pre-emergence action against SETVI in %: 100%
[9]; dosage 320 g/ha
  Pre-emergence action against POLCO in %: 100%
[21]; 80 g/ha
  Post-emergence action against ABUTH in %: 90%
[21]; 320 g/ha
  Post-emergence action against ABUTH in %: 90%
[22]
  Post-emergence action against DIGSA in %: 80%
Lolium rigidum (LOLRI) [10]
  Pre-emergence action against LOLRI in %: 90%
[11]; 80 g/ha
  Pre-emergence action against AMARE in %: 90%
[11]; 320 g/ha
  Pre-emergence action against AMARE in %: 100%
[12]; 80 g/ha, visual rating about 3 weeks after treatment vs untreated controls (100% = plants have died, 0% = like control plants)
  Post-emergence action against AMARE in %: 90%
[12]; [27]
  Post-emergence action against AMARE in %: 90%
[23]
  Post-emergence action against POLCO in %: 90%
Viola tricolor (VIOTR) [24]
  Post-emergence action against VIOTR in %: 80%
[14]
  Pre-emergence action against ECHCG in %: 90%
Viola tricolor (VIOTR) [25]
  Pre-emergence action against VIOTR in %: 100%
[15]
  Pre-emergence action against MATIN in %: 90%
[16]; dosage 320 g/ha
  Post-emergence action against PHBPU in %: 100%
Setaria viridis (SETVI) [18]
  Post-emergence action against SETVI in %: 100%
[26]
  Pre-emergence action against ALOMY: 100%
